According to patent US11685729B2, “C5a receptor modulators” (IDORSIA PHARMACEUTICALS LTD., priority 2018, dated 2023):

These molecules were tested against C5AR1 (Homo sapiens (Human), UniProt P21730) (assay: In vitro assay: PathHunter beta-arrestin antagonist assay in CHO-K1 C5AR1 beta-arrestin cell line, stimulated with C5a agonist). Conditions: not given.
C5AR1, sequence (P21730 whole entry): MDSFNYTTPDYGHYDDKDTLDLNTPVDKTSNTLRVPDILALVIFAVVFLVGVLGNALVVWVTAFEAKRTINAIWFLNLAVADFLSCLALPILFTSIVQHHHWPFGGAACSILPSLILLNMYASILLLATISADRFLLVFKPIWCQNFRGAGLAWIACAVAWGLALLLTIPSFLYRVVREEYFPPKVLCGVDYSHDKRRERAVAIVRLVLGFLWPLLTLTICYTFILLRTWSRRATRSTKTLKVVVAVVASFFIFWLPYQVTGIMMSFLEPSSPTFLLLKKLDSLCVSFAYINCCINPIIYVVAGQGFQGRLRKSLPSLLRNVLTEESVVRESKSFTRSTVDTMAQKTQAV
For `Cc1cccc(F)c1N1CCC(N2Cc3ccccc3N(Cc3nnccc3OC(C)C)C2=O)CC1` [Example 80, 3-[1-(2-Fluoro-6-methyl-phenyl)-piperidin-4-yl]-1-(4-isopropoxy-pyridazin-3-ylmethyl)-3,4-dihydro-1H-quinazolin-2-one], the IC50 was 1790 nM.

Same assay, conditions: read-out: C5aR IC50; CHO-K1 C5AR1 beta-arrestin cell line; 1-10 nM C5a agonist; geometric mean values
In the case of `Cc1cccc(F)c1N1CCC(N2Cc3ccccc3N(Cc3ccccc3OC(F)(F)F)C2=O)CC1` [Example 74, 3-[1-(2-Fluoro-6-methyl-phenyl)-piperidin-4-yl]-1-(2-trifluoromethoxy-benzyl)-3,4-dihydro-1H-quinazolin-2-one], the IC50 is reported as 17 nM. `Cc1cccc(F)c1N1CCC(N2Cc3ccccc3N(Cc3ccccc3Cl)C2=O)CC1` [Example 75, 1-(2-Chloro-benzyl)-3-[1-(2-fluoro-6-methyl-phenyl)-piperidin-4-yl]-3,4-dihydro-1H-quinazolin-2-one] was tested, and the IC50 was 55 nM. `O=C1N(Cc2ccccc2C(F)(F)F)c2ccccc2CN1C1CCN(c2c(F)cccc2C(F)(F)F)CC1` [Example 76, 3-[1-(2-Fluoro-6-trifluoromethyl-phenyl)-piperidin-4-yl]-1-(2-trifluoromethyl-benzyl)-3,4-dihydro-1H-quinazolin-2-one] was tested, and the IC50 was 50 nM. In the case of `Cc1cccc(F)c1N1CCCC(N2Cc3ccccc3N(Cc3ccccc3C(F)(F)F)C2=O)CC1` (stereo not drawn) [Example 77, 3-[1-(2-Fluoro-6-methyl-phenyl)-azepan-4-yl]-1-(2-trifluoromethyl-benzyl)-3,4-dihydro-1H-quinazolin-2-one], the IC50 is reported as 175 nM. For `O=C1N(Cc2ccccc2C(F)(F)F)c2ccccc2CN1C1CCN(c2c(F)cccc2OC(F)(F)F)CC1` [Example 78, 3-[1-(2-Fluoro-6-trifluoromethoxy-phenyl)-piperidin-4-yl]-1-(2-trifluoromethyl-benzyl)-3,4-dihydro-1H-quinazolin-2-one], the IC50 was 80 nM. Molecule `Cc1cccc(Cl)c1N1CCC(N2Cc3ccccc3N(Cc3ccccc3C(F)(F)F)C2=O)CC1` [Example 79, 3-[1-(2-Chloro-6-methyl-phenyl)-piperidin-4-yl]-1-(2-trifluoromethyl-benzyl)-3,4-dihydro-1H-quinazolin-2-one] has an IC50 of 57 nM. In the case of `Cc1cccc(F)c1N1CC(N2Cc3ccccc3N(Cc3ccccc3C(F)(F)F)C2=O)C1` [Example 81, 3-[1-(2-Fluoro-6-methyl-phenyl)-azetidin-3-yl]-1-(2-trifluoromethyl-benzyl)-3,4-dihydro-1H-quinazolin-2-one], the IC50 is reported as 1280 nM. For `Cc1nc(C(F)(F)F)c(CN2C(=O)N(C3CCN(c4c(C)cccc4F)CC3)Cc3ccccc32)s1` [Example 83, 3-[1-(2-Fluoro-6-methyl-phenyl)-piperidin-4-yl]-1-(2-methyl-4-trifluoromethyl-thiazol-5-ylmethyl)-3,4-dihydro-1H-quinazolin-2-one], the IC50 was 1320 nM.
